Measured values taken from US11358987B2, “Albicidin derivatives, their use and synthesis” (priority 2018, dated 2022).
In brackets after ≈: the same amount, converted by molar mass. Where two headings read alike, the source gives them in different places.

What was measured:
Test in all cases: Microdilution assay, MIC determination (CLSI M07-A9)
Type in all cases: cell-based
B. subtilis DSM10 = details: Bacillus subtilis
Procedure: (§1) E. coli DSM 1116; E. coli BW25113; S. typhimurium TA100; Bacillus subtilis DSM10; M. phlei DSM750 and Micrococcus luteus DSM1790
(§2) The tests were performed using the micro dilution method.
(§3) The determination of MIC values was performed according to the ninth edition of the Approved Standard M07-A9 (CLSI. Methods for Dilution Antimicrobial Susceptibility Tests for Bacteria That Grow Aerobically; Approved Standard-Ninth Edition. CLSI document M07-A9. Wayne, Pa.: Clinical and Laboratory Standards Institute; 2012.)
(§4) The test was carried out for the six different bacterial strains 20 μL of cryo stock of each strain were inoculated in 20 mL of LB media (Lysogeny broth: 10 g/L peptone, 5 g/L yeast extract, 5 g/L NaCl) followed by incubation over night at 37° C., 200 rpm. The test inoculum was adjusted by the 0.5 McFarland Standard (OD625 from 0.08 to 0.1). Within 15 min of preparation, the adjusted inoculum suspension was diluted in MHBII media (BBL™ Mueller-Hinton Broth II, Becton, Dickinson and Company, New Jersey/USA) so that each well contained approximately 5×10^5 CFU/mL in a final volume of 100 μL. 95 μL of the inoculum were applied per well and 5 μL of the (diluted) antibiotic substance were added.
(§5) Previously the dry antibiotic compounds were dissolved in DMSO (100%) with a concentration of 2560 μg/mL and the resulting stock solutions were further diluted in DMSO (100%). 5 μL of each antibiotic dilution were applied to the microdilution tray to reach final concentrations of 64 μg/mL to 0.008 μg/mL. One row of each well plate was left as a growth control without antibiotic substances and another row of the microdilution tray was used as sterility control (only MHB II-media). The antimicrobial effect of the solvent (DMSO) was tested by adding 5 μL DMSO to several wells without antibiotics.
(§6) Purity check and cell titer control were performed according to International Standard M07-A9 on Mueller-Hinton II Agar (Mueller Hinton II Broth, 15 g/L agar-agar).
(§7) Both microdilution trays and agar plates were incubated at 37° C. for 20 h and subsequently analyzed visually.

E. coli BW25113 = details: Escherichia coli
Procedure: as §1, §2, §3, §4, §5, §6, §7

E. coli DSM1116 = details: Escherichia coli
Procedure: as §1, §2, §3, §4, §5, §6, §7

M. luteus DSM1790 = details: Micrococcus luteus
Procedure: as §1, §2, §3, §4, §5, §6, §7

M. phlei DSM750 = details: Mycolicibacterium phlei
Procedure: as §1, §2, §3, §4, §5, §6, §7

S. typhimurium TA100 = details: Salmonella enterica, 20 h
Procedure: as §1, §2, §3, §4, §5, §6, §7

[1] = B. subtilis DSM10, 37° C., 20 h, MHBII media, read-out: MIC
[2] = E. coli BW25113, 37° C., 20 h, MHBII media, read-out: MIC
[3] = E. coli DSM1116, 37° C., 20 h, MHBII media, read-out: MIC
[4] = M. luteus DSM1790, 37° C., 20 h, MHBII media, read-out: MIC
[5] = M. phlei DSM750, 37° C., 20 h, MHBII media, read-out: MIC
[6] = S. typhimurium TA100, 37° C., MHBII media, read-out: MIC

Row | SMILES | MIC (B. subtilis DSM10; [1]) | MIC (E. coli BW25113; [2]) | MIC (E. coli DSM1116; [3]) | MIC (M. luteus DSM1790; [4]) | MIC (M. phlei DSM750; [5]) | MIC (S. typhimurium TA100; [6]) | MIC (B. subtilis DSM10; DSM10, 20 h) | MIC (E. coli BW25113; BW25113, 20 h) | MIC (E. coli DSM1116; DSM1116, 20 h) | MIC (M. luteus DSM1790; DSM1790, 20 h) | MIC (M. phlei DSM750; DSM750, 20 h) | MIC (S. typhimurium TA100; TYPHIMURIUM)
1 | COc1c(NC(=O)c2ccc(NC(=O)c3ccc(NC(=O)C(Cc4cnn[nH]4)NC(=O)c4ccc(NC(=O)c5ccc(C#N)cc5)cc4)cn3)c(OC)c2O)ccc(C(=O)O)c1O (stereo not drawn) [Compound 12] | 250 µg/mL (≈ 292 µM) | 31 µg/mL (≈ 36.3 µM) | 31 µg/mL (≈ 36.3 µM) | 125 µg/mL (≈ 146 µM) | 8000 µg/mL (≈ 9360 µM) | ≤ 16 µg/mL |  |  |  |  |  | 
2 | COc1c(NC(=O)c2ccc(NC(=O)c3ccc(NC(=O)C(Cc4cnn[nH]4)NC(=O)c4ccc(NC(=O)/C(C)=C/c5ccc(O)cc5)cn4)cc3)c(OC)c2O)ccc(C(=O)O)c1O (stereo not drawn) [Compound 1] |  |  |  |  |  |  | 250 µg/mL (≈ 282 µM) | 16 µg/mL (≈ 18.1 µM) | 16 µg/mL (≈ 18.1 µM) | 500 µg/mL (≈ 564 µM) | 2000 µg/mL (≈ 2260 µM) | 16 µg/mL (≈ 18.1 µM)
3 | COc1c(NC(=O)c2ccc(NC(=O)c3ccc(NC(=O)C(Cc4cnn[nH]4)NC(=O)c4ccc(NC(=O)/C(C)=C/c5ccc(O)cc5)cc4)cn3)c(OC)c2O)ccc(C(=O)O)c1O (stereo not drawn) [Compound 10] | 63 µg/mL (≈ 71.1 µM) | ≤ 16 µg/mL | ≤ 16 µg/mL | 31 µg/mL (≈ 35 µM) | 250 µg/mL (≈ 282 µM) | ≤ 16 µg/mL |  |  |  |  |  | 
4 | COc1c(NC(=O)c2ccc(NC(=O)c3ccc(NC(=O)C(Cc4cnn[nH]4)NC(=O)c4ccc(NC(=O)/C(C)=C/c5ccc(O)cc5)nc4)cc3)c(OC)c2O)ccc(C(=O)O)c1O (stereo not drawn) [Compound 2] | 500 µg/mL (≈ 564 µM) | 16 µg/mL (≈ 18.1 µM) | 31 µg/mL (≈ 35 µM) | 2000 µg/mL (≈ 2260 µM) | 2000 µg/mL (≈ 2260 µM) | 16 µg/mL (≈ 18.1 µM) |  |  |  |  |  | 
5 | COc1c(NC(=O)c2ccc(NC(=O)[C@H](Cc3c[nH]nn3)NC(=O)c3ccc(NC(=O)/C(C)=C/c4ccc(O)cc4)cc3)cc2)ccc(C(=O)Nc2ccc(C(=O)O)nc2)c1O [Compound 20] | ≥ 8000 µg/mL | > 8000 µg/mL | > 8000 µg/mL | ≥ 8000 µg/mL | ≥ 8000 µg/mL |  |  |  |  |  |  | 125 µg/mL (≈ 149 µM)
6 | COc1c(NC(=O)c2ccc(NC(=O)c3ccc(NC(=O)[C@H](CC#N)NC(=O)c4ccc(NC(=O)/C(C)=C/c5ccc(O)cc5)cc4)cc3)c(OC)c2O)ccc(C(=O)O)c1O [Albicidin] |  |  |  |  |  |  | 250 µg/mL (≈ 297 µM) | 63 µg/mL (≈ 74.7 µM) | 63 µg/mL (≈ 74.7 µM) | 1000 µg/mL (≈ 1190 µM) | 2000 µg/mL (≈ 2370 µM) | 63 µg/mL (≈ 74.7 µM)
7 | COc1c(NC(=O)c2ccc(NC(=O)c3ccc(NC(=O)C(Cc4cnn[nH]4)NC(=O)c4ccc(NC(=O)/C(C)=C/c5ccc(O)cc5)cn4)cc3O)c(OC)c2O)ccc(C(=O)O)c1O (stereo not drawn) [Compound 4] | 1000 µg/mL (≈ 1110 µM) | 31 µg/mL (≈ 34.4 µM) | 31 µg/mL (≈ 34.4 µM) | 2000 µg/mL (≈ 2220 µM) | 2000 µg/mL (≈ 2220 µM) | 16 µg/mL (≈ 17.7 µM) |  |  |  |  |  | 
8 | COc1nc(C(=O)Nc2ccc(C(=O)O)nc2OC)ccc1NC(=O)c1ccc(NC(=O)[C@H](Cc2c[nH]nn2)NC(=O)c2ccc(NC(=O)/C(C)=C/c3ccc(O)cc3)cc2)cc1 [Compound 19] | 4000 µg/mL (≈ 4680 µM) | 1000 µg/mL (≈ 1170 µM) | 500 µg/mL (≈ 585 µM) | 2000 µg/mL (≈ 2340 µM) | 8000 µg/mL (≈ 9360 µM) | 500 µg/mL (≈ 585 µM) |  |  |  |  |  | 
9 | COc1nc(C(=O)O)ccc1NC(=O)c1ccc(NC(=O)c2ccc(NC(=O)C(Cc3cnn[nH]3)NC(=O)c3ccc(NC(=O)/C(C)=C/c4ccc(O)cc4)cc3)cc2)c(OC)c1O (stereo not drawn) [Compound 7] | 2000 µg/mL (≈ 2300 µM) | 500 µg/mL (≈ 575 µM) | 250 µg/mL (≈ 287 µM) | > 8000 µg/mL | 8000 µg/mL (≈ 9200 µM) | 250 µg/mL (≈ 287 µM) |  |  |  |  |  | 
10 | COc1c(NC(=O)c2ccc(NC(=O)c3ccc(NC(=O)C(Cc4cnn[nH]4)NC(=O)c4ccc(NC(=O)c5ccc(F)cc5)cn4)cc3O)c(OC)c2O)ccc(C(=O)O)c1O (stereo not drawn) [Compound 9] | 1000 µg/mL (≈ 1160 µM) | 125 µg/mL (≈ 145 µM) | 63 µg/mL (≈ 72.9 µM) | > 8000 µg/mL | 1000 µg/mL (≈ 1160 µM) | 310 µg/mL (≈ 359 µM) |  |  |  |  |  | 
11 | CC(C)Oc1c(NC(=O)c2ccc(NC(=O)[C@H](Cc3c[nH]nn3)NC(=O)c3ccc(NC(=O)c4ccc(C#N)cc4)cn3)cn2)ccc(C(=O)Nc2ccc(C(=O)O)cc2)c1O [Compound 18] | ≤ 16 µg/mL | ≤ 16 µg/mL | 31 µg/mL (≈ 37 µM) | ≤ 16 µg/mL | 31 µg/mL (≈ 37 µM) | ≤ 16 µg/mL |  |  |  |  |  | 
